The numbers were not newly measured in patent US20070077258A1 (priority 2005, published 2007), which cites them from elsewhere.

Where two headings read alike, the source gives them in different places.

For data set [1] the following is noted: 3 grams of glutathione by oral ingestion.
The test system of data set [2] is influenza virus in Madin-Darby Canine Kidney (MDCK) Cells.
Data set [3] concerns influenza virus in Normal Human Small Airway Epithelial Cells (SAEC).

`N[C@@H](CCC(=O)N[C@@H](CS)C(=O)NCC(=O)O)C(=O)O` [glutathione, gamma-glutamyl-cysteinyl-glycine]: the “effect on plasma glutathione levels” value in data set [1] is on record as “does not elevate plasma glutathione levels”. In addition, the tolerability entry by setting is: (1500 mg /m2) “well tolerated”; (2500 mg daily for 5 days) “well tolerated”. In addition, for the setting “in vivo”, the toxicity reported entry is listed as “No toxicity”. Further, the “replication of flu virus” value in data set [2] and in data set [3] was “prevention of replication of flu virus was demonstrated” each time.
